Reference: patent US7932270B2 (Cytokinetics, Inc., priority 2006, dated 2011)

molecular target: T1, chicken gizzard smooth muscle myosin subfragment-1 chemically crosslinked to cardiac or skeletal actin (Gallus gallus, UniProt P10587); test: Smooth muscle myosin ATPase dose response assay (pyruvate kinase/horseradish peroxidase/pyruvate oxidase-coupled, amplex red fluorescence); assay type: biochemical; settings: read-out: IC50 Arithmetic Mean
T1 construct: chicken gizzard smooth muscle myosin subfragment-1; from tissue; host or cells: chicken gizzard
Procedure, shortened: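 Readout is amplex red signal from coupled ATPase of actin-crosslinked gizzard myosin S1 (0.15 mM ATP, 12 mM K-PIPES, pH 7.00). IC50 is the half-maximal activity point of a four-parameter Hill fit.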

T1 sequence (P02607 2-151): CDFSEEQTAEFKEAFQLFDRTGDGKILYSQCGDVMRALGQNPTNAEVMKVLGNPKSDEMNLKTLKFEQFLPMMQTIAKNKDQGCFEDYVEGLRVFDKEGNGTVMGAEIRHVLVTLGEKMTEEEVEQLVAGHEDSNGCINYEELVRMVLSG
T1 sequence (P10587 84-789): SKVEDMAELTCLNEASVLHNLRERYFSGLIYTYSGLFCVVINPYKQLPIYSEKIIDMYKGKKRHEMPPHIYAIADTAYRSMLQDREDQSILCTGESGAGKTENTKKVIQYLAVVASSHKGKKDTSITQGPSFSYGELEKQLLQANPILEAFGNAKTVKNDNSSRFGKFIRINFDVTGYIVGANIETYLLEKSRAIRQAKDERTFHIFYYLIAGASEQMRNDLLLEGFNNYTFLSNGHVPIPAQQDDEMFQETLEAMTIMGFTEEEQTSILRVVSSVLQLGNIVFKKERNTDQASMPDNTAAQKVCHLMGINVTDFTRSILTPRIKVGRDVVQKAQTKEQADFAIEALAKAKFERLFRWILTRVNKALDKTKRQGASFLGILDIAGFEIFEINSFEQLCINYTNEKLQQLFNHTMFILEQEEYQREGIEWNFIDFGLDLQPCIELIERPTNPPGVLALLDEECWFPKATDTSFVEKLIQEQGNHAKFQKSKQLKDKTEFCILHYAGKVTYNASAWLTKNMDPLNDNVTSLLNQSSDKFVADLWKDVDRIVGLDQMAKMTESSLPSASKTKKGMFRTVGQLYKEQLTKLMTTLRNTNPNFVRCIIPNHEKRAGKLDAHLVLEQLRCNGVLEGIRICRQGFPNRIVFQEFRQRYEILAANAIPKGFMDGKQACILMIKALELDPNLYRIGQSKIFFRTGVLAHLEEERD

| SMILES | IC50 |
| --- | --- |
| N#Cc1ccccc1-c1ccc(C(=O)NCc2cnccn2)c(NCCc2cccc(F)c2)n1 [(6-(2-cyanophenyl)-2-{[2-(3-fluorophenyl)ethyl]amino}(3-pyridyl))-N-(pyrazin-2-ylmethyl)carboxamide] | 0.026 µM |
| N#Cc1ccccc1-c1ccc(C(=O)NCc2cc[nH]n2)c(NCCc2cccc(F)c2)n1 [(6-(2-cyanophenyl)-2-{[2-(3-fluorophenyl)ethyl]amino}(3-pyridyl))-N-(pyrazol-3-ylmethyl)carboxamide] | 0.015 µM |
| N#Cc1ccccc1-c1ccc(C(=O)NCC2CCCN2)c(NCCc2cccc(F)c2)n1 (centres unmarked) [(6-(2-cyanophenyl)-2-{[2-(3-fluorophenyl)ethyl]amino}(3-pyridyl))-N-(pyrrolidin-2-ylmethyl)carboxamide] | 0.439 µM |
| N#Cc1ccccc1-c1ccc(C(=O)NCC2CCNC2)c(NCCc2cccc(F)c2)n1 (centres unmarked) [(6-(2-cyanophenyl)-2-{[2-(3-fluorophenyl)ethyl]amino}(3-pyridyl))-N-(pyrrolidin-3-ylmethyl)carboxamide] | 0.963 µM |
| COC(=O)NCCNC(=O)c1ccc(-c2ccccc2C#N)nc1NCCc1cccc(F)c1 [(6-(2-cyanophenyl)-2-{[2-(3-fluorophenyl)ethyl]amino}(3-pyridyl))-N-[2-(methoxycarbonylamino)ethyl]carboxamide] | 1.12 µM |
| CNCCNC(=O)c1ccc(-c2ccccc2C#N)nc1NCCc1cccc(F)c1 [(6-(2-cyanophenyl)-2-{[2-(3-fluorophenyl)ethyl]amino}(3-pyridyl))-N-[2-(methylamino)ethyl]carboxamide] | 4.46 µM |
| CN1CCN(CCCNC(=O)c2ccc(-c3ccccc3C#N)nc2NCCc2cccc(F)c2)CC1 [(6-(2-cyanophenyl)-2-{[2-(3-fluorophenyl)ethyl]amino}(3-pyridyl))-N-[3-(4-methylpiperazinyl)propyl]carboxamide] | 3.06 µM |
| N#Cc1ccccc1-c1ccc(C(=O)NCC(CO)CO)c(NCCc2cccc(F)c2)n1 [(6-(2-cyanophenyl)-2-{[2-(3-fluorophenyl)ethyl]amino}(3-pyridyl))-N-[3-hydroxy-2-(hydroxymethyl)propyl]carboxamide] | 0.209 µM |
| Cn1ccc(CNC(=O)c2ccc(-c3ccccc3C#N)nc2NCCc2cccc(F)c2)n1 [(6-(2-cyanophenyl)-2-{[2-(3-fluorophenyl)ethyl]amino}(3-pyridyl))-N-[(1-methylpyrazol-3-yl)methyl]carboxamide] | 0.032 µM |
| Cn1nccc1CNC(=O)c1ccc(-c2ccccc2C#N)nc1NCCc1cccc(F)c1 [(6-(2-cyanophenyl)-2-{[2-(3-fluorophenyl)ethyl]amino}(3-pyridyl))-N-[(1-methylpyrazol-5-yl)methyl]carboxamide] | 0.031 µM |
| COc1ncccc1CNC(=O)c1ccc(-c2ccccc2C#N)nc1NCCc1cccc(F)c1 [(6-(2-cyanophenyl)-2-{[2-(3-fluorophenyl)ethyl]amino}(3-pyridyl))-N-[(2-methoxy(3-pyridyl))methyl]carboxamide] | 0.087 µM |
| Cc1ncccc1CNC(=O)c1ccc(-c2ccccc2C#N)nc1NCCc1cccc(F)c1 [(6-(2-cyanophenyl)-2-{[2-(3-fluorophenyl)ethyl]amino}(3-pyridyl))-N-[(2-methyl(3-pyridyl))methyl]carboxamide] | 0.022 µM |
| N#Cc1ccccc1-c1ccc(C(=O)NCC2CCCNC2=O)c(NCCc2cccc(F)c2)n1 (centres unmarked) [(6-(2-cyanophenyl)-2-{[2-(3-fluorophenyl)ethyl]amino}(3-pyridyl))-N-[(2-oxo(3-piperidyl))methyl]carboxamide] | 0.014 µM |
| N#Cc1ccccc1-c1ccc(C(=O)NCC2CCNC2=O)c(NCCc2cccc(F)c2)n1 (centres unmarked) [(6-(2-cyanophenyl)-2-{[2-(3-fluorophenyl)ethyl]amino}(3-pyridyl))-N-[(2-oxopyrrolidin-3-yl)methyl]carboxamide] | 0.032 µM |
| N#Cc1ccccc1-c1ccc(C(=O)NCc2cccnc2CNC(=O)c2ccc(-c3ccccc3C#N)nc2NCCc2cccc(F)c2)c(NCCc2cccc(F)c2)n1 [(6-(2-cyanophenyl)-2-{[2-(3-fluorophenyl)ethyl]amino}(3-pyridyl))-N-[(3-{[(6-(2-cyanophenyl)-2-{[2-(3-fluorophenyl)ethyl]amino}(3-pyridyl))carbonylamino]methyl}(2-pyridyl))methyl]carboxamide] | 2.44 µM |
| N#Cc1ccc(CNC(=O)c2ccc(-c3ccccc3C#N)nc2NCCc2cccc(F)c2)cc1 [(6-(2-cyanophenyl)-2-{[2-(3-fluorophenyl)ethyl]amino}(3-pyridyl))-N-[(4-cyanophenyl)methyl]carboxamide] | 0.968 µM |
| N#Cc1ccccc1-c1ccc(C(=O)NCc2ccc(F)cc2)c(NCCc2cccc(F)c2)n1 [(6-(2-cyanophenyl)-2-{[2-(3-fluorophenyl)ethyl]amino}(3-pyridyl))-N-[(4-fluorophenyl)methyl]carboxamide] | 2.11 µM |
| Cc1ccc(CNC(=O)c2ccc(-c3ccccc3C#N)nc2NCCc2cccc(F)c2)cc1 [(6-(2-cyanophenyl)-2-{[2-(3-fluorophenyl)ethyl]amino}(3-pyridyl))-N-[(4-methylphenyl)methyl]carboxamide] | 24.3 µM |

| SMILES | IC50 |
| --- | --- |
| COc1ccc(CNC(=O)c2ccc(-c3ccccc3C#N)nc2NCCc2cccc(F)c2)cn1 [(6-(2-cyanophenyl)-2-{[2-(3-fluorophenyl)ethyl]amino}(3-pyridyl))-N-[(6-methoxy(3-pyridyl))methyl]carboxamide] | 8.1 µM |
| Cc1cccc(CNC(=O)c2ccc(-c3ccccc3C#N)nc2NCCc2cccc(F)c2)n1 [(6-(2-cyanophenyl)-2-{[2-(3-fluorophenyl)ethyl]amino}(3-pyridyl))-N-[(6-methyl(2-pyridyl))methyl]carboxamide] | 0.054 µM |
| Cc1ccc(CNC(=O)c2ccc(-c3ccccc3C#N)nc2NCCc2cccc(F)c2)cn1 [(6-(2-cyanophenyl)-2-{[2-(3-fluorophenyl)ethyl]amino}(3-pyridyl))-N-[(6-methyl(3-pyridyl))methyl]carboxamide] | 0.426 µM |
| N#Cc1ccccc1-c1ccc(C(=O)NCc2ccc(N3CCOCC3)nc2)c(NCCc2cccc(F)c2)n1 [(6-(2-cyanophenyl)-2-{[2-(3-fluorophenyl)ethyl]amino}(3-pyridyl))-N-[(6-morpholin-4-yl(3-pyridyl))methyl]carboxamide] | 16.9 µM |
| N#Cc1ccccc1-c1ccc(C(=O)NCC2CCCC(=O)N2)c(NCCc2cccc(F)c2)n1 (centres unmarked) [(6-(2-cyanophenyl)-2-{[2-(3-fluorophenyl)ethyl]amino}(3-pyridyl))-N-[(6-oxo(2-piperidyl))methyl]carboxamide] | 0.029 µM |
| N#Cc1ccccc1-c1ccc(C(=O)NCc2ccc(N3CCNCC3)nc2)c(NCCc2cccc(F)c2)n1 [(6-(2-cyanophenyl)-2-{[2-(3-fluorophenyl)ethyl]amino}(3-pyridyl))-N-[(6-piperazinyl(3-pyridyl))methyl]carboxamide] | 1.75 µM |
| N#Cc1ccccc1-c1ccc(C(=O)NCc2ccc(N3CCCC3)nc2)c(NCCc2cccc(F)c2)n1 [(6-(2-cyanophenyl)-2-{[2-(3-fluorophenyl)ethyl]amino}(3-pyridyl))-N-[(6-pyrrolidinyl(3-pyridyl))methyl]carboxamide] | 66.6 µM |
| N#Cc1ccccc1-c1ccc(C(=O)NCC2CCCCC(=O)N2)c(NCCc2cccc(F)c2)n1 (centres unmarked) [(6-(2-cyanophenyl)-2-{[2-(3-fluorophenyl)ethyl]amino}(3-pyridyl))-N-[(7-oxoazaperhydroepin-2-yl)methyl]carboxamide] | 0.095 µM |
| CNC(=O)NCCNC(=O)c1ccc(-c2ccccc2C#N)nc1NCCc1cccc(F)c1 [(6-(2-cyanophenyl)-2-{[2-(3-fluorophenyl)ethyl]amino}(3-pyridyl))-N-{2-[(methylamino)carbonylamino]ethyl}carboxamide] | 0.866 µM |
| CS(=O)(=O)NCCNC(=O)c1ccc(-c2ccccc2C#N)nc1NCCc1cccc(F)c1 [(6-(2-cyanophenyl)-2-{[2-(3-fluorophenyl)ethyl]amino}(3-pyridyl))-N-{2-[(methylsulfonyl)amino]ethyl}carboxamide] | 0.326 µM |
| CN(CCNC(=O)c1ccc(-c2ccccc2C#N)nc1NCCc1cccc(F)c1)S(C)(=O)=O [(6-(2-cyanophenyl)-2-{[2-(3-fluorophenyl)ethyl]amino}(3-pyridyl))-N-{2-[methyl(methylsulfonyl)amino]ethyl}carboxamide] | 1.39 µM |
| CC(C)(CNC(=O)c1ccc(-c2ccccc2C#N)nc1NCCc1cccc(F)c1)NS(C)(=O)=O [(6-(2-cyanophenyl)-2-{[2-(3-fluorophenyl)ethyl]amino}(3-pyridyl))-N-{2-methyl-2-[(methylsulfonyl)amino]propyl}carboxamide] | 1.47 µM |
| N#Cc1ccccc1-c1ccc(C(=O)NCC2CCCN(CCO)C2=O)c(NCCc2cccc(F)c2)n1 (centres unmarked) [(6-(2-cyanophenyl)-2-{[2-(3-fluorophenyl)ethyl]amino}(3-pyridyl))-N-{[1-(2-hydroxyethyl)-2-oxo(3-piperidyl)]methyl}carboxamide] | 0.059 µM |
| N#Cc1ccccc1-c1ccc(C(=O)NCC2CCCN(CCN=[N+]=[N-])C2=O)c(NCCc2cccc(F)c2)n1 (centres unmarked) [(6-(2-cyanophenyl)-2-{[2-(3-fluorophenyl)ethyl]amino}(3-pyridyl))-N-{[1-(3-diazo-3-azaprop-3-enyl)-2-oxo(3-piperidyl)]methyl}carboxamide] | 0.412 µM |
| N#Cc1ccccc1-c1ccc(C(=O)NCC2(CCN=[N+]=[N-])CCCNC2=O)c(NCCc2cccc(F)c2)n1 (centres unmarked) [(6-(2-cyanophenyl)-2-{[2-(3-fluorophenyl)ethyl]amino}(3-pyridyl))-N-{[3-(3-diazo-3-azaprop-3-enyl)-2-oxo(3-piperidyl)]methyl}carboxamide] | 15.8 µM |
| N#Cc1ccccc1-c1ccc(C(=O)NCc2ncccc2C(F)(F)F)c(NCCc2cccc(F)c2)n1 [(6-(2-cyanophenyl)-2-{[2-(3-fluorophenyl)ethyl]amino}(3-pyridyl))-N-{[3-(trifluoromethyl)(2-pyridyl)]methyl}carboxamide] | 0.603 µM |
| N#Cc1ccccc1-c1ccc(C(=O)NCc2cncc(CO)c2)c(NCCc2cccc(F)c2)n1 [(6-(2-cyanophenyl)-2-{[2-(3-fluorophenyl)ethyl]amino}(3-pyridyl))-N-{[5-(hydroxymethyl)(3-pyridyl)]methyl}carboxamide] | 0.081 µM |
